# Results published in patent US7803930B2, “Antisense modulation of apolipoprotein B-expression” (Isis Pharmaceuticals, Inc., priority 2002, dated 2010).
# Legend:
# [1] = test system: apolipoprotein B mRNA; test: Lean mice, 6 weeks (Example 66): apolipoprotein B mRNA; format: in vivo, mouse
# Protocol: The accumulation of lipids in liver tissue was also evaluated in lean mice. Male […] mice (Charles River Laboratories (Wilmington, Mass.) at 6 to 7 weeks of age were maintained on a standard rodent diet and were treated twice weekly with intraperitoneal injections of 25 or 50 mg/kg 147764 (SEQ ID NO: 109) or 147483 (SEQ ID NO: 79) for 6 weeks. Saline treated animals served as controls. Each treatment group was comprised of 4 animals. Animals were sacrificed after the 6 week treatment period, at which point liver tissue and serum were collected.
# Apolipoprotein B mRNA levels were measured by real-time PCR as described by other examples herein. The data, shown in Table 51, represent the average of 4 animals and are presented as inhibition relative to saline treated controls.
# [2] = test system: mouse apolipoprotein B protein; test: High fat fed mice (Example 51): serum apolipoprotein B protein, immunoblot; format: in vivo; details: high fat fed C57Bl/6 mice; 50 mg/kg i.p. twice weekly
# Excerpt: Furthermore, at 1, 2, 3 and 4 weeks of treatment, a inverse correlation between inhibition of target mRNA and cholesterol levels (total, HDL and LDL) is observed, with cholesterol levels lowering as percent inhibition of apolipoprotein B mRNA becomes greater. Serum samples were subjected to immunoblot analysis using an antibody to detect mouse apolipoprotein B protein (Gladstone Institute, San Francisco, Calif.).
# [3] = test system: apolipoprotein B mRNA; test: Long-term study in lean Cynomolgous monkeys (Example 64): apolipoprotein B mRNA in liver; format: in vivo, Cynomolgous monkey; details: for apolipoprotein B expression % change normalized to saline: liver, one month
# Protocol: Male and female Cynomologous monkeys are treated with 2, 4 or 12 mg/kg of ISIS 301012 intravenously or 2 or 20 mg/kg subcutaneously at a frequency of every two days for the first week, and every 4 days thereafter, for 1 and 3 month treatment periods. Saline-treated animals serve as controls. Each treatment group includes 2 to 3 animals of each sex.
# At a one month interval and at the 3 month study termination, the animals are sacrificed and evaluated for target expression in liver, lipid levels in serum and indicators of toxicity. Liver samples are procured, RNA is isolated and apolipoprotein B mRNA expression is measured by real-time PCR as described in other examples herein. Serum lipids, including total cholesterol, LDL-cholesterol, HDL-cholesterol and triglycerides, are evaluated by routine clinical analysis using an Olympus Clinical Analyzer (Olympus America Inc., Melville, N.Y.). Ratios of LDL-cholesterol to HDL-cholesterol and total cholesterol to HDL-cholesterol are also calculated. Analyses of serum ALT and AST, inflammatory infiltrates in tissue and basophilic granules in tissue provide an assessment of toxicities related to the treatment. Hepatic steatosis, or accumulation of lipids in the liver, is assessed by routine histological analysis with oil red 0 stain and measurement of liver tissue triglycerides using a Triglyceride GPO Assay (Sigma-Aldrich, St. Louis, Mo.).
# (§1) The results from the one month interval of the long term treatment are shown in Table 50 and are normalized to saline-treated animals for mRNA and to untreated baseline values for lipid levels. Total cholesterol, LDL-cholesterol, HDL-cholesterol, LDL particle concentration and triglyceride levels in serum were measured by nuclear magnetic resonance spectroscopy by Liposcience (Raleigh, N.C.). Additionally, the concentration of intact oligonucleotide in liver was measured by capillary gel electrophoresis and is presented as micrograms of oligonucleotide per gram of liver tissue. Each result represents the average of data from 4 animals (2 males and 2 females).
# In a similar experiment, male and female Cynomolgous monkeys received an intravenous dose of ISIS 301012 at 4 mg/kg, every two days for the first week and every 4 days thereafter. Groups of animals were sacrificed after the first dose and the fourth dose, as well as 11, 15 and 23 days following the fourth and final dose. Liver RNA was isolated and apolipoprotein B mRNA levels were evaluated by real-time PCR as described herein. […] Furthermore, after 4 doses of ISIS 301012 at 4 mg/kg, target mRNA was reduced by approximately 85% and a 50% reduction in target mRNA was sustained for up to 16 days following the cessation of antisense oligonucleotide treatment.
# [4] = Long-term study in lean Cynomolgous monkeys (Example 64): serum lipids by nuclear magnetic resonance spectroscopy; format: in vivo, Cynomolgous monkey; details: one month
# Protocol: […] Saline-treated animals serve as controls. Each treatment group includes 2 to 3 animals of each sex.
# as §1
# [5] = test system: human apolipoprotein B protein (apolipoprotein B-100 and apolipoprotein B-48); test: Transgenic mice dosing study (Example 52): immunoblot of human apolipoprotein B protein in serum and liver; format: in vivo, human transgene in mouse
# Protocol: Apolipoprotein B protein in serum was also assessed by immunoblot analysis using an antibody directed to human apolipoprotein B protein (US Biologicals, Swampscott, Mass.).
substance,measurement,setting,value
"GTCCCTGAAGATGTCAATGC (2'-MOE gapmer, further chemistry not given here) [ISIS 147764]",% Inhibition apolipoprotein B mRNA,[1]; 25 mg/kg i.p. twice weekly,48%
same,% Inhibition apolipoprotein B mRNA,[1]; 50 mg/kg i.p. twice weekly,77%
same,inhibition of apolipoprotein B mRNA expression,[1]; 25 or 50 mg/kg i.p. twice weekly,in a dose-dependent manner
same,apolipoprotein B protein in serum (immunoblot),[2],markedly reduced within 48 hours
"ISIS 301012: SEQ ID NO: 247, antisense oligonucleotide targeted to human apolipoprotein B (antisense GCCTCAGTCTGCTTCGCACC; chemistry not given here)",reduction in target mRNA in liver,"[3]; Cynomolgous monkeys, after 4 doses at 4 mg/kg i.v.",approximately 85%
same,reduction in apolipoprotein B mRNA expression in liver,"[3]; Cynomolgous monkeys, single intravenous dose of 4 mg/kg",40%
same,reduction in target mRNA in liver sustained after cessation,"[3]; Cynomolgous monkeys, up to 16 days following cessation of treatment (4 doses, 4 mg/kg)",50%
same,apolipoprotein B expression,"[3]; lean Cynomolgous monkeys, one month interval",inhibits apolipoprotein B expression in a dose-dependent manner
same,apolipoprotein B expression % change normalized to saline,"[3]; lean Cynomolgous monkeys, intravenous 2 mg/kg",−45%
same,apolipoprotein B expression % change normalized to saline,"[3]; lean Cynomolgous monkeys, intravenous 4 mg/kg",−76%
same,apolipoprotein B expression % change normalized to saline,"[3]; lean Cynomolgous monkeys, intravenous 12 mg/kg",−96%
same,apolipoprotein B expression % change normalized to saline,"[3]; lean Cynomolgous monkeys, subcutaneous 20 mg/kg",−94%
same,"HDL-cholesterol, % change normalized to untreated baseline value",[4]; intravenous 2 mg/kg,−23%
same,"LDL Particle concentration, % change normalized to untreated baseline value",[4]; intravenous 2 mg/kg,+8%
same,"LDL-cholesterol, % change normalized to untreated baseline value",[4]; intravenous 2 mg/kg,+15%
same,"LDL/HDL, % change normalized to untreated baseline value",[4]; intravenous 2 mg/kg,+94%
same,"Total cholesterol, % change normalized to untreated baseline value",[4]; intravenous 2 mg/kg,−6%
same,"Total cholesterol/HDL, % change normalized to untreated baseline value",[4]; intravenous 2 mg/kg,+44%
same,"Triglyceride, % change normalized to untreated baseline value",[4]; intravenous 2 mg/kg,+26%
same,"HDL-cholesterol, % change normalized to untreated baseline value",[4]; intravenous 4 mg/kg,−15%
same,"LDL Particle concentration, % change normalized to untreated baseline value",[4]; intravenous 4 mg/kg,+8%
same,"LDL-cholesterol, % change normalized to untreated baseline value",[4]; intravenous 4 mg/kg,+9%
same,"LDL/HDL, % change normalized to untreated baseline value",[4]; intravenous 4 mg/kg,+38%
same,"Total cholesterol, % change normalized to untreated baseline value",[4]; intravenous 4 mg/kg,−2%
same,"Total cholesterol/HDL, % change normalized to untreated baseline value",[4]; intravenous 4 mg/kg,+22%
same,"Triglyceride, % change normalized to untreated baseline value",[4]; intravenous 4 mg/kg,+32%
same,"HDL-cholesterol, % change normalized to untreated baseline value",[4]; intravenous 12 mg/kg,−8%
same,"LDL Particle concentration, % change normalized to untreated baseline value",[4]; intravenous 12 mg/kg,−11%
same,"LDL-cholesterol, % change normalized to untreated baseline value",[4]; intravenous 12 mg/kg,+3%
same,"LDL/HDL, % change normalized to untreated baseline value",[4]; intravenous 12 mg/kg,+44%
same,"Total cholesterol, % change normalized to untreated baseline value",[4]; intravenous 12 mg/kg,−2%
same,"Total cholesterol/HDL, % change normalized to untreated baseline value",[4]; intravenous 12 mg/kg,+21%
same,"Triglyceride, % change normalized to untreated baseline value",[4]; intravenous 12 mg/kg,+15%
same,"HDL-cholesterol, % change normalized to untreated baseline value",[4]; subcutaneous 3.5 mg/kg,+13%
same,"LDL Particle concentration, % change normalized to untreated baseline value",[4]; subcutaneous 3.5 mg/kg,−14%
same,"LDL-cholesterol, % change normalized to untreated baseline value",[4]; subcutaneous 3.5 mg/kg,−4%
same,"LDL/HDL, % change normalized to untreated baseline value",[4]; subcutaneous 3.5 mg/kg,−15%
same,"Total cholesterol, % change normalized to untreated baseline value",[4]; subcutaneous 3.5 mg/kg,+5%
same,"Total cholesterol/HDL, % change normalized to untreated baseline value",[4]; subcutaneous 3.5 mg/kg,−7%
same,"Triglyceride, % change normalized to untreated baseline value",[4]; subcutaneous 3.5 mg/kg,+1%
same,"HDL-cholesterol, % change normalized to untreated baseline value",[4]; subcutaneous 20 mg/kg,+5%
same,"LDL Particle concentration, % change normalized to untreated baseline value",[4]; subcutaneous 20 mg/kg,−21%
same,"LDL-cholesterol, % change normalized to untreated baseline value",[4]; subcutaneous 20 mg/kg,−16%
same,"LDL/HDL, % change normalized to untreated baseline value",[4]; subcutaneous 20 mg/kg,−19%
same,"Total cholesterol, % change normalized to untreated baseline value",[4]; subcutaneous 20 mg/kg,−5%
same,"Total cholesterol/HDL, % change normalized to untreated baseline value",[4]; subcutaneous 20 mg/kg,−10%
same,"Triglyceride, % change normalized to untreated baseline value",[4]; subcutaneous 20 mg/kg,−3%
same,"expression of human apolipoprotein B, B-100 and B-48 forms, in liver (immunoblot)",[5],reduction
same,"human apolipoprotein B protein in serum, B-100 and B-48 forms (immunoblot)","[5]; 2, 4, 6 and 12 weeks of treatment",lowered
